Where “and” joins values, the source holds several entries; their conditions need not be identical. Identical values can stand only once. Like-named read-outs stand apart in the source and are kept apart here.
Tests used:
Test in all cases: MTT assay for 7-day toxicity assay
Type in all cases: cell-based
[1] = tested on: Glioma SNB19M (MGMT+); conditions: for GI50: Glioma SNB19M (MGMT+)
Experimental: (§1) The cell culture techniques were carried out in a Class II microbiological safety cabinet which was swabbed with 70% IMS in distilled water before each use. […] MRC-5 cells were cultured in EMEM. Cells were grown in a humidified incubator containing 5% CO2 at 37° C. Cells were sub-cultured when growth exceeded approximately 80% confluence, normally twice weekly. The medium was aspirated from the flask and approximately 0.8 mL trypsin-EDTA 1× solution added. The cells were re-incubated at 37° C. until they visibly detached from the flask. The cell suspension was then re-suspended in 5 mL medium and 0.5-1 mL of the cell suspension was transferred to a new flask (25 cm^2) with 7 mL culture medium. The cells were further incubated at 37° C. incubator. Cells were disposed after passage nearly 30 times in order to minimize phenotypic drift. New batches of cells were taken from liquid nitrogen storage by thawing rapidly (37° C. water bath) and re-suspension in a 25 cm^2 flask with 10 mL of culture medium. Two passages were allowed to resume normal growth. For long-term maintenance, viable cells at 60-80% confluence were detached by minimum amount of trypsin/EDTA and re-suspended in sterile filtered freezing medium (95% FBS, 5% DMSO), transferred to sterile cryogenic vials, and frozen overnight at −20° C. followed by −80° C. for 1-2 days and stored in liquid nitrogen for long term storage.
(§2) Most test compounds, including temozolomide, were prepared as stock solution (100 mM) in DMSO and stored at −20° C. for not more than 6 months.
(§3) Glioma cell lines, SNB19 and U373, both MGMT transfected (i.e., SNB19M and U373M) and vector controls (i.e., SNB19V and U373V); colorectal carcinoma cell lines, HCT116, HT29, and DLD1; melanoma cell line, SKMEL-28; breast cell line, MCF-7; and normal human fetal lung fibroblast cell line, MRC-5; were harvested at 60-80% confluence—during the logarithmic phase of growth.
(§4) Following harvesting, cells in suspension were gently syringed through a 23 gauge needle to obtain a near-single cell suspension. The desired cell seeding densities were used and added into 96-well plates in 180 μL culture medium if only one test compound was to be added, or 160 μL if two test compounds were to be added in combination, which were allowed to attach at 37° C. (5% CO2) overnight. For the 7 day assay, the cell seeding density for different cell lines was as follows: SNB19V, SNB19M: 650 cells/well; U373V, U373M: 650 cells/well; SNB19VR, U373VR: 650 cells/well; HCT116, DLD-1, SKMEL-28, MRC-5, MCF-7: 400 cells/well.
(§5) The two peripheral lanes were used as blank wells (cell free) and filled with 200 μL of medium in order to minimise medium evaporation from the plate. A separate time zero (T0) plate was set up alongside other plates. Serial dilutions in tissue culture medium of a 100 mM stock of test compound in DMSO were prepared immediately before each assay to ten times the final concentrations required, and then 20 μL was added to each well (200 μL total media per well) to achieve final concentrations of 0.5 μM, 1 μM, 5 μM, 10 μM, 50 μM, 100 μM, 500 μM, and 1000 μM. A minimum of four wells received the same test compound concentration. To control wells, including those in the T0 plate, 20 μL of medium was added. […] A separate plate treated in the same way, but free of test compound, was used as a measure of cell viability at the time of drug addition (day 0).
(§6) After incubation at 37° C., 5% CO2 for 7 days (or immediately for the day 0 plate), cell viability was quantified using the MTT assay. 50 μL of sterile filtered MIT (3-(4,5-dimethylthiazol-2-yl)-2,5-diphenyltetrazolium bromide) (2 mg/mL in phosphate buffered saline) were added to each well (final concentration 0.4 mg/mL) and the plates were re-incubated for 4 hours to allow metabolic conversion of MTT by dehydrogenases in viable cells to insoluble formazan crystals.
(§7) The intensity of absorbance is directly proportional to cell viability.

[2] = tested on: Glioma SNB19V (MGMT−); conditions: for GI50: Glioma SNB19V (MGMT−)
Experimental: as §1, §2, §3, §4, §5, §6, §7

[3] = tested on: Glioma U373M (MGMT+); conditions: Glioma U373M (MGMT+), 7-day MTT, single determinations, read-out: GI50
Experimental: as §1, §2, §3, §4, §5, §6, §7

[4] = tested on: Glioma U373V (MGMT low); conditions: Glioma U373V (MGMT low)
Experimental: as §1, §2, §3, §4, §5, §6, §7

[5] = 168 h, 7-day MTT, single determinations, read-out: GI50
[6] = 7-day MTT, single determinations, read-out: GI50

`CC#CCn1nnc2c(C(N)=O)ncn2c1=O` [EE-002, 3-But-2-ynyl-4-oxo-3,4-dihydro-imidazo[5,1-d][1,2,3,5]tetrazine-8-carboxylic acid amide] gave a GI50 [1, 5] of 38.1 µM, a GI50 [1, 6] of 37.1 µM and a GI50 [2, 5] of 33.5 µM. The GI50 [2, 6] was 45.8 µM, the GI50 ([3]; 168 h) was 41.1 µM and the GI50 [3] was 25.1 µM. It also gave a GI50 [4, 5] of 42.1 µM and a GI50 [4, 6] of 31.1 µM.
Compound `CNC(=O)Cn1nnc2c(C(N)=O)ncn2c1=O` [JJ-002, N-Methyl (8-Carbamoyl-oxoimidazo[5,1-d][1,2,3,5]tetrazin-3(4H)-yl)ethanamide] has a GI50 [1, 5] of 258 µM, a GI50 [1, 6] of 235 µM and a GI50 [2, 5] of 73.5 µM. It also gave a GI50 [2, 6] of 58.1 µM, a GI50 ([3]; 168 h) of 306 µM and a GI50 [3] of 221 µM. It also gave a GI50 [4, 5] of 234 µM and a GI50 [4, 6] of 287 µM.
`NC(=O)c1ncn2c(=O)n(Cc3ccsc3)nnc12` [CC-001, 4-oxo-3-(thiophen-3-ylmethyl)-3,4-dihydroimidazo[5,1-d][1,2,3,5]tetrazine-8-carboxamide] was tested, and the GI50 [1, 5] was 208 µM, the GI50 [1, 6] was 135 µM and the GI50 [2, 5] was 79.6 µM. For the same compound, the GI50 [2, 6] was 117 µM, the GI50 ([3]; 168 h) was 198 µM and the GI50 [3] was 232 µM. For the same compound, the GI50 [4, 5] was 206 µM and the GI50 [4, 6] was 160 µM.
For `CC(C)(C)OC(=O)Cn1nnc2c(C(N)=O)ncn2c1=O` [LL-006, (8-Carbamoyl-4-oxo-imidazo[5,1-d][1,2,3,5]tetrazin-3-yl)-acetic acid tert-butyl ester], the GI50 ([1]; 168 h, 7-day MTT, single determinations) was 64 µM and the GI50 ([1]; 7-day MTT, single determinations) was 60.5 µM and 87.2 µM.
`CSCCn1nnc2c(C(N)=O)ncn2c1=O` [KK-002, 3-(2-Methylsulfanyl-ethyl)-4-oxo-3,4-dihydro-imidazo[5,1-d][1,2,3,5]tetrazine-8-carboxylic acid amide] gave a GI50 [1, 5] of 304 µM, a GI50 [1, 6] of 259 µM and a GI50 [2, 5] of 288 µM. The GI50 [2, 6] was 321 µM, the GI50 ([3]; 168 h) was 229 µM and the GI50 [3] was 286 µM. The GI50 [4, 5] was 152 µM and the GI50 [4, 6] was 300 µM.
`CCOP(=O)(Cn1nnc2c(C(N)=O)ncn2c1=O)OCC` [VV-001, (8-Carbamoyl-4-oxo-imidazo[5,1-d][1,2,3,5]tetrazin-3-ylmethyl)-phosphonic acid diethyl ester] was tested, and the GI50 [1] was 102 µM and 85.6 µM, the “activity compared with TMZ, in words” value ([1]; SNB19M glioma cell line) was “more active than TMZ” and the GI50 [2] was 73.6 µM and 63.4 µM. For the same compound, the “activity compared with TMZ, in words” value ([2]; SNB19V glioma cell line) was “more active than TMZ” and the GI50 [4] was 306 µM and 174 µM.
Work on `C[Si](C)(C)C#CCn1nnc2c(C(N)=O)ncn2c1=O` [EE-003, 4-Oxo-3-(3-trimethylsilanyl-prop-2-ynyl)-3,4-dihydro-imidazo[5,1-d][1,2,3,5]tetrazine-8-carboxylic acid amide] yielded a GI50 [1, 5] of 42.9 µM, a GI50 [1, 6] of 35.2 µM and a GI50 [2, 5] of 41.7 µM. It also gave a GI50 [2, 6] of 36.6 µM, a GI50 ([3]; 168 h) of 31.5 µM and a GI50 [3] of 30 µM. It also gave a GI50 [4, 5] of 26.8 µM and a GI50 [4, 6] of 33.6 µM.
Compound `NC(=O)c1ncn2c(=O)n(CCC(=O)O)nnc12` [LL-001, 3-(8-Carbamoyl-oxoimidazo[5,1-d][1,2,3,5]tetrazin-3(4H)-yl)propanoic acid] has a GI50 [1, 5] of 397 µM, a GI50 [1, 6] of 232 µM and a GI50 [2, 5] of 356 µM. The GI50 [2, 6] was 355 µM, the GI50 ([3]; 168 h) was 236 µM and the GI50 [3] was 281 µM. It also gave a GI50 [4, 5] of 234 µM and a GI50 [4, 6] of 248 µM.
Work on `NC(=O)c1ncn2c(=O)n(CC3CC3)nnc12` [GG-003, 3-Cyclopropylmethyl-8-carbamoylimidazotetrazin-4-one] yielded a GI50 [1, 5] of 152 µM, a GI50 [1, 6] of 293 µM and a GI50 [4, 5] of 386 µM.

From patent publication US8450479B2, “3-substituted-4-oxo-3,4-dihydro-imidazo[5,1-d][1,2,3,5-tetrazine-8-carboxylic acid amides and their use” (Pharminox Limited, priority 2007, dated 2013)
